Laboratory results taken from PubChem BioAssay AID2060886 (Molecular Pharmacology Branch, DTP, NCI, 2025).

Test system: 653999-131-R-J2-PDC complex spheroids, growth inhibition
Assay: Anticancer human tumor 653999-131-R-J2-PDC patient-derived lung adenocarcinoma cell line growth inhibition [RAS]
Details: for IC50: curve of first compound; for viability, T/C: stronger effect = lower value
Summary of the method: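 Multi-cell-type spheroids: tumor cells plus HUVEC endothelial cells and mesenchymal stem cells. RAS-pathway inhibitors were combined with targeted agents, each dosed in half-log steps down from clinical Cmax, or from 10 microM when Cmax was unknown.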

[1] = second compound 0.000949 µM, first compound 0.0316 µM
[2] = second compound 0.000949 µM, first compound 0.1 µM
[3] = second compound 0.000949 µM, first compound 0.316 µM
[4] = second compound 0.000949 µM, first compound 1 µM
[5] = second compound 0.000949 µM, first compound 3.16 µM
[6] = second compound 0.000949 µM, first compound 10 µM
[7] = second compound 0.003 µM, first compound 0.0316 µM
[8] = second compound 0.003 µM, first compound 0.1 µM
[9] = second compound 0.003 µM, first compound 0.316 µM
[10] = second compound 0.003 µM, first compound 1 µM
[11] = second compound 0.003 µM, first compound 3.16 µM
[12] = second compound 0.003 µM, first compound 10 µM
[13] = second compound 0.00949 µM, first compound 0.0316 µM
[14] = second compound 0.00949 µM, first compound 0.1 µM
[15] = second compound 0.00949 µM, first compound 0.316 µM
[16] = second compound 0.00949 µM, first compound 1 µM
[17] = second compound 0.00949 µM, first compound 3.16 µM
[18] = second compound 0.00949 µM, first compound 10 µM
[19] = second compound 0.03 µM, first compound 0.0316 µM
[20] = second compound 0.03 µM, first compound 0.1 µM
[21] = second compound 0.03 µM, first compound 0.316 µM
[22] = second compound 0.03 µM, first compound 1 µM
[23] = second compound 0.03 µM, first compound 3.16 µM
[24] = second compound 0.03 µM, first compound 10 µM
[25] = second compound 0.0949 µM, first compound 0.0316 µM
[26] = second compound 0.0949 µM, first compound 0.1 µM
[27] = second compound 0.0949 µM, first compound 0.316 µM
[28] = second compound 0.0949 µM, first compound 1 µM
[29] = second compound 0.0949 µM, first compound 3.16 µM
[30] = second compound 0.0949 µM, first compound 10 µM
[31] = second compound 0.3 µM, first compound 0.0316 µM
[32] = second compound 0.3 µM, first compound 0.1 µM
[33] = second compound 0.3 µM, first compound 0.316 µM
[34] = second compound 0.3 µM, first compound 1 µM
[35] = second compound 0.3 µM, first compound 3.16 µM
[36] = second compound 0.3 µM, first compound 10 µM
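Note: spheroids exposed to the agents for seven days before the readout.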

Which results are given for `CC(C)NCC(C(=O)N1CCN(c2ncnc3c2C(C)CC3O)CC1)c1ccc(Cl)cc1` (stereo unspecified) + CCn1c(-c2cccnc2C(C)OC)c2c3cc(ccc31)N1CCOC(CC(NC(=O)C(C(C)C)N(C)C(=O)C3(F)CCN(C(=O)C#CC(C)(C)N(C)C)CC3)C(=O)N3CCCC(N3)C(=O)OCC(C)(C)C2)C1?
IC50 (second compound 0.000949 µM): 953 nM; IC50 (second compound 0.003 µM): 1240 nM; IC50 (second compound 0.00949 µM): 1530 nM; IC50 (second compound 0.03 µM): 1530 nM; IC50 (second compound 0.0949 µM): 1160 nM; IC50 (second compound 0.3 µM): 996 nM; viability, T/C [1]: 91%; viability, T/C [2]: 110%; viability, T/C [3]: 72.1%; viability, T/C [4]: 53.1%; viability, T/C [5]: 41.6%; viability, T/C [6]: 34.6%; viability, T/C [7]: 86.8%; viability, T/C [8]: 99.8%; viability, T/C [9]: 70.2%; viability, T/C [10]: 54.3%; viability, T/C [11]: 40.6%; viability, T/C [12]: 32.9%; viability, T/C [13]: 118%; viability, T/C [14]: 94.4%; viability, T/C [15]: 83.6%; viability, T/C [16]: 48.2%; viability, T/C [17]: 44.7%; viability, T/C [18]: 30.6%; viability, T/C [19]: 101%; viability, T/C [20]: 85.1%; viability, T/C [21]: 76.4%; viability, T/C [22]: 53.5%; viability, T/C [23]: 40.8%; viability, T/C [24]: 31.2%; viability, T/C [25]: 109%; viability, T/C [26]: 81.7%; viability, T/C [27]: 73.3%; viability, T/C [28]: 47.3%; viability, T/C [29]: 39.9%; viability, T/C [30]: 36.5%; viability, T/C [31]: 92%; viability, T/C [32]: 85.7%; viability, T/C [33]: 64.8%; viability, T/C [34]: 49.9%; viability, T/C [35]: 42.5%; viability, T/C [36]: 34.2%

Which IC50 (second compound 0.000949 µM) does the source give for `CCN1CCN(Cc2ccc(Nc3ncc(F)c(-c4cc(F)c5nc(C)n(C(C)C)c5c4)n3)nc2)CC1` + CCn1c(-c2cc(N3CCN(C)CC3)cnc2C(C)OC)c2c3cc(ccc31)-c1csc(n1)CC(NC(=O)C1CC1C)C(=O)N1CCCC(N1)C(=O)OCC(C)(C)C2 here?
Its IC50 is greater than 1000 nM.

What about the IC50 (second compound 0.003 µM) of the same compound?
The IC50 was 94.8 nM.

What about the IC50 (second compound 0.00949 µM) of the same compound?
The IC50 was 5.9 nM.

And the IC50 (second compound 0.03 µM)?
The IC50 was less than 3.16 nM.

What about the IC50 (second compound 0.0949 µM) of the same compound?
Its IC50 is less than 3.16 nM.

What about the IC50 (second compound 0.3 µM) of the same compound?
The IC50 was less than 3.16 nM.

What about the viability, T/C (second compound 0.000949 µM, first compound 0.00316 µM) of the same compound?
The viability, T/C was 81.5%.

And the viability, T/C (second compound 0.000949 µM, first compound 0.01 µM)?
The viability, T/C was 62.4%.

And the viability, T/C [1]?
The viability, T/C was 66.9%.

And the viability, T/C [2]?
The viability, T/C was 58.1%.

And the viability, T/C [3]?
The viability, T/C was 62.6%.

What about the viability, T/C [4] of the same compound?
Its viability, T/C is 58%.

What about the viability, T/C (second compound 0.003 µM, first compound 0.00316 µM) of the same compound?
Its viability, T/C is 63.4%.

What about the viability, T/C (second compound 0.003 µM, first compound 0.01 µM) of the same compound?
The viability, T/C was 66.9%.

And the viability, T/C [7]?
The viability, T/C was 62.3%.

What about the viability, T/C [8] of the same compound?
The viability, T/C was 49.5%.

And the viability, T/C [9]?
Its viability, T/C is 46.2%.

What about the viability, T/C [10] of the same compound?
The viability, T/C was 47.5%.

What about the viability, T/C (second compound 0.00949 µM, first compound 0.00316 µM) of the same compound?
Its viability, T/C is 56.6%.

And the viability, T/C (second compound 0.00949 µM, first compound 0.01 µM)?
The viability, T/C was 45.9%.

What about the viability, T/C [13] of the same compound?
The viability, T/C was 37%.

And the viability, T/C [14]?
The viability, T/C was 30.4%.

What about the viability, T/C [15] of the same compound?
Its viability, T/C is 34%.

What about the viability, T/C [16] of the same compound?
Its viability, T/C is 33.1%.

And the viability, T/C (second compound 0.03 µM, first compound 0.00316 µM)?
Its viability, T/C is 24.2%.

What about the viability, T/C (second compound 0.03 µM, first compound 0.01 µM) of the same compound?
Its viability, T/C is 30.9%.

What about the viability, T/C [19] of the same compound?
Its viability, T/C is 30.9%.

And the viability, T/C [20]?
The viability, T/C was 24.4%.

What about the viability, T/C [21] of the same compound?
The viability, T/C was 26.3%.

And the viability, T/C [22]?
The viability, T/C was 29.4%.

What about the viability, T/C (second compound 0.0949 µM, first compound 0.00316 µM) of the same compound?
Its viability, T/C is 30.6%.

And the viability, T/C (second compound 0.0949 µM, first compound 0.01 µM)?
Its viability, T/C is 26.6%.

What about the viability, T/C [25] of the same compound?
The viability, T/C was 15.7%.

What about the viability, T/C [26] of the same compound?
The viability, T/C was 22.2%.

What about the viability, T/C [27] of the same compound?
The viability, T/C was 24.3%.

And the viability, T/C [28]?
The viability, T/C was 25.4%.

And the viability, T/C (second compound 0.3 µM, first compound 0.00316 µM)?
Its viability, T/C is 23.3%.

What about the viability, T/C (second compound 0.3 µM, first compound 0.01 µM) of the same compound?
The viability, T/C was 24.7%.

And the viability, T/C [31]?
The viability, T/C was 17.5%.

What about the viability, T/C [32] of the same compound?
Its viability, T/C is 17.7%.

And the viability, T/C [33]?
The viability, T/C was 18.1%.

What about the viability, T/C [34] of the same compound?
Its viability, T/C is 29.2%.

How did the IC50 (second compound 0.000949 µM) turn out when `CC(=O)OC12COC1CC(O)C1(C)C(=O)C(O)C3=C(C)C(OC(=O)C(O)C(NC(=O)OC(C)(C)C)c4ccccc4)CC(O)(C(OC(=O)c4ccccc4)C21)C3(C)C` (stereo unspecified) + CCn1c(-c2cccnc2C(C)OC)c2c3cc(ccc31)N1CCOC(CC(NC(=O)C(C(C)C)N(C)C(=O)C3(F)CCN(C(=O)C#CC(C)(C)N(C)C)CC3)C(=O)N3CCCC(N3)C(=O)OCC(C)(C)C2)C1 was run?
The IC50 was greater than 10000 nM.

What about the IC50 (second compound 0.003 µM) of the same compound?
Its IC50 is greater than 10000 nM.

What about the IC50 (second compound 0.00949 µM) of the same compound?
The IC50 was greater than 10000 nM.

What about the IC50 (second compound 0.03 µM) of the same compound?
Its IC50 is greater than 10000 nM.

What about the IC50 (second compound 0.0949 µM) of the same compound?
Its IC50 is greater than 10000 nM.

And the IC50 (second compound 0.3 µM)?
Its IC50 is less than 31.6 nM.

What about the viability, T/C [1] of the same compound?
Its viability, T/C is 52.5%.

What about the viability, T/C [2] of the same compound?
Its viability, T/C is 52.7%.

What about the viability, T/C [3] of the same compound?
The viability, T/C was 57.8%.

And the viability, T/C [4]?
The viability, T/C was 62.2%.

What about the viability, T/C [5] of the same compound?
Its viability, T/C is 62.3%.

And the viability, T/C [6]?
The viability, T/C was 66.6%.

What about the viability, T/C [7] of the same compound?
Its viability, T/C is 59.5%.

What about the viability, T/C [8] of the same compound?
The viability, T/C was 53.2%.

What about the viability, T/C [9] of the same compound?
The viability, T/C was 53.8%.

What about the viability, T/C [10] of the same compound?
The viability, T/C was 59.7%.

What about the viability, T/C [11] of the same compound?
Its viability, T/C is 70.7%.

What about the viability, T/C [12] of the same compound?
Its viability, T/C is 76.9%.

What about the viability, T/C [13] of the same compound?
Its viability, T/C is 60.5%.

And the viability, T/C [14]?
The viability, T/C was 59.7%.

What about the viability, T/C [15] of the same compound?
Its viability, T/C is 53.1%.

And the viability, T/C [16]?
The viability, T/C was 58.7%.

And the viability, T/C [17]?
Its viability, T/C is 66.3%.

What about the viability, T/C [18] of the same compound?
Its viability, T/C is 67.2%.

What about the viability, T/C [19] of the same compound?
The viability, T/C was 57.6%.

What about the viability, T/C [20] of the same compound?
Its viability, T/C is 59.9%.

What about the viability, T/C [21] of the same compound?
Its viability, T/C is 56.1%.

And the viability, T/C [22]?
The viability, T/C was 54.5%.

What about the viability, T/C [23] of the same compound?
Its viability, T/C is 68%.

What about the viability, T/C [24] of the same compound?
The viability, T/C was 64.2%.

What about the viability, T/C [25] of the same compound?
Its viability, T/C is 53.6%.

And the viability, T/C [26]?
Its viability, T/C is 55%.

What about the viability, T/C [27] of the same compound?
Its viability, T/C is 52.3%.

And the viability, T/C [28]?
Its viability, T/C is 58.5%.

What about the viability, T/C [29] of the same compound?
The viability, T/C was 61%.

What about the viability, T/C [30] of the same compound?
Its viability, T/C is 65.1%.

And the viability, T/C [31]?
Its viability, T/C is 45.6%.

And the viability, T/C [32]?
The viability, T/C was 49.8%.

What about the viability, T/C [33] of the same compound?
Its viability, T/C is 41%.

What about the viability, T/C [34] of the same compound?
The viability, T/C was 52.1%.

And the viability, T/C [35]?
The viability, T/C was 53.7%.

And the viability, T/C [36]?
The viability, T/C was 60.3%.
